How the values were obtained:
xenografted HNSCC = conditions: human tumor cells in immunodeficient mice; cited from earlier work
[1] = test system: promoters of CCL5, CXCL9, CXCL10 and CXCL11; assay: ChIP-qPCR on chemokine promoters; format: cell-based, human; conditions: SCC23 cells
Experimental: ChIP-qPCR assays were performed as previously described (Ding et al, 2013). Briefly, SCC cells were sequentially treated with dimethyl 3,3′-dithiobispropionimidate-HCl (DTBP; Cat #20665, Thermo Fisher Scientific) solution and formaldehyde, and harvested with a cell scraper. The cell pellet was lysed with ChIP lysis buffer and sonicated to generate 200-500 bp DNA fragments with a sonicator. The fragmented chromatins were immunoprecipitated with anti-BMI1 (Cell Signaling Technology, Cat #6964), anti-Ubiquityl-Histone H2A (Lys119) (Cell Signaling Technology, Cat #8240) overnight at 4° C. The precipitated DNA-chromatin products were purified with ChIP DNA clean & concentrator kit (Cat #D5205, Zymo Research) and the DNA levels were quantified by qPCR. Data is presented as the percentage of input DNA.

pIRF3 = pIRF3 immunofluorescent staining in 4NQO-induced HNSCC; parameters: species or system mouse; conditions: 4NQO-induced HNSCC in vivo
BMI1+ CSCs = assay: In vivo labeling and lineage tracing of Tomato+ BMI1+ CSCs; parameters: species or system mouse; conditions: tamoxifen 1 day prior to sacrifice, treated 4 weeks
Experimental: (§1) The immunocomplexes were detected and visualized using related secondary antibodies conjugated with Cy2 or Cy3 (Jackson ImmunoResearch Laboratories). […] At least three sections from each HNSCC lesions were immunostained and analyzed. Tumor cells (>150) and CD8+, Ac-casp3+ and Tomato^+ cells of these tumor cell areas were counted manually in each section. The percentage of CD8+, Ac-casp3^+ and Tomato^+ cells were calculated by dividing those cells with tumor cells and averaged from the sections.

BMI1 = BMI1 expression in HNSCC tumors by immunostaining and Western blot; format: in vivo, mouse; conditions: immunostaining and Western blot of HNSCC tumors
Experimental: (§2) Cells were lysed using the radioimmunoprecipitation assay (RIPA) buffer (Sigma-Aldrich, Cat #R0278) added with a cocktail of protease inhibitors (Thermo Fisher Scientific, Cat ##78430) and phosphatase inhibitors (Sigma-Aldrich, Cat #4906845001). Protein extracts were resolved on a 10% or 15% SDS polyacrylamide gel and then transferred to a polyvinylidene difluoride membrane. Membranes were blocked with 5% milk for 1 h and incubated with primary antibodies overnight at 4° C. […] The signals were detected using the Clarity Western ECL kit (Bio-Rad, Cat #1705060). […] After treatment, supernatants were collected, and the protein levels of CCL5, CXCL9, CXCL10 and CXCL11 were measured with ELISA (R&D Systems, Cat #DRN00B, DCX900, DIP100, DCX110) according to the manufacturer's instructions.

[2] = test system: CCL5, CXCL9, CXCL10, and CXCL11; assay: qRT-PCR and ELISA of CCL5, CXCL9, CXCL10, CXCL11 in SCC cells; format: cell-based, human; conditions: SCC1 and SCC23 cells
Experimental: (§3) For qRT-PCR, total RNA was prepared using TRIzol reagent (Thermo Fisher Scientific Cat #15596026), and 1 μg of RNA was reversely transcribed with random primer (Thermo Fisher Scientific Cat #48190011), dNTP mix (Thermo Fisher Scientific, Cat #18427013), and M-MuLV Reverse Transcriptase (New England Biolabs, Cat #M0253L). The levels of mRNA were […] measured using a SYBRGreen supermix (Bio-Rad, Cat #1708880). GAPDH was used as an internal control.
as §2

B16 melanoma = format: in vivo, mouse; conditions: B16 tumors in immunocompetent mice
Experimental: C57/6J mice were injected in the flank subcutaneously with B16 melanoma cells (250,000 cells per site). Tumors were measured every 3 days once palpable (long diameter and short diameter) with a caliper. Tumor volume was determined using the volume formula for an ellipsoid: ½×D×d^2 where D is the longer diameter and d is the shorter diameter. Mice were sacrificed when tumors reached 1000 mm^3 or upon ulceration/bleeding.

CD8+ T cells = assay: Immunostaining of CD8+ T cells in HNSCC; format: in vivo, mouse; conditions: 4NQO-induced HNSCC, treated 4 weeks
Experimental: as §1

[3] = test system: neutrophils and MDSCs (Gr1+CD11b+ cells); assay: Immunofluorescent staining of neutrophils and MDSCs in HNSCC; format: in vivo, mouse; conditions: 4NQO-induced HNSCC
SCC23 cells [4] = assay: RNA-Seq and GO analysis in SCC23 cells; format: cell-based, human
Experimental: Total RNA was isolated from PTC209-treated or shBMI1 knockdown SCC cells using a RNeasy Micro Kit (QIAGEN, Cat #74004). RNA quality was examined using an Agilent 2100 Bioanalyzer. Library preparation using the KAPA RNA-Seq Library Preparation Kits (KAPA Biosystems, Cat #07960140001) was performed at the UCLA sequencing core facility, and RNAs were single-end sequenced on Illumina HiSeq 3000 machines. The online DAVID bioinformatics resources were used to analyze the differentially expressed genes under the category of GOTERM_BP_DIRECT. The heatmap was generated with Heatmap Builder. The raw data was deposited at the Gene Expression Omnibus (GEO) under the subseries entry GSE140433.

IFNβ = assay: qRT-PCR of IFNβ mRNA; format: cell-based, human; conditions: SCC23 cells
Experimental: as §3

SCC23 cells [5] = assay: qRT-PCR of ATM, DNA-PKcs, MRE11, JUN, FOSL1, MMP3, MMP9 in SCC23 cells; format: cell-based, human
Experimental: as §3

## COc1cc(Br)c(Nc2nc(-c3c(C)nc4ncccn34)cs2)c(Br)c1 [PTC209, N-(2,6-dibromo-4-methoxyphenyl)-4-(2-methylimidazo[1,2-a]pyrimidin-3-yl)thiazol-2-amine]
Xenografted HNSCC
  xenografted HNSCC growth: inhibit xenografted HNSCC growth
[1]
  levels of BMI1 on the promoters of CCL5, CXCL9, CXCL10 and CXCL11: significantly reduced the levels of BMI1 on these promoters in SCC23 cells
  levels of H2AUb marks on the promoters of CCL5, CXCL9, CXCL10 and CXCL11: significantly decreased in SCC23 cells
pIRF3
  pIRF3 in HNSCC: significantly increased
BMI1+ CSCs
  BMI1+ CSCs in HNSCC (in vivo labeling): able to reduce BMI1+ CSCs
BMI1
  BMI1 expression in tumors: Reduction of BMI1 expression
[2]
  expression of CCL5, CXCL9, CXCL10, and CXCL11: significantly increased the expression of CCL5, CXCL9, CXCL10, and CXCL11 in both SCC1 and SCC23 cells
B16 melanoma
  melanoma resistance to anti-PD1: overcomes melanoma resistance to anti-PD1 by recruiting CD8+ T cells
CD8+ T cells
  CD8+ T cell infiltration in HNSCC: could induce CD8+ T cell infiltration in tumors
[3]
  percentage of neutrophils and MDSCs (Gr1+CD11b+ cells) in HNSCC: does not significantly change the percentage of neutrophils and MDSCs (Gr1^+CD11b^+ cells) in HNSCC
SCC23 cells [4]
  IFN-regulated chemokines (CCL5, CXCL9, CXCL10, and CXCL11), RNA-seq heatmap: significantly increased
SCC23 cells [4]; RNA-Seq
  GO analysis of induced genes: induced the expression of genes associated with immune response and chemotaxis
IFNβ
  IFNβ mRNA expression: induction of IFNβ mRNA expression in SCC23 cells
SCC23 cells [5]
  ATM, DNA-PKcs, and MRE11 mRNA expression: does not affect the expression of ATM, DNA-PKcs, and MRE11
  JUN, FOSL1, MMP3, and MMP9 mRNA expression: does not change the expression of JUN, FOSL1, MMP3, and MMP9 significantly
